{"source": "patent US4014921A", "about": "“O-Acetoxy benzoate ester of 2(p-acetamido-phenyloxy)ethyl alcohol” (Alter, S.A., priority 1975, dated 1977)", "key": {"[1]": {"experiment": "Anti-inflammatory activity: edema inhibition (method of Winter, Risley and Nuss)", "format": "in vivo", "conditions": "in vivo; LD50 / anti-inflammatory ED50; read-out: anti-inflammatory ED50 times lower than LD50"}, "edema": {"test_system": "edema", "experiment": "Anti-inflammatory activity: edema inhibition (method of Winter, Risley and Nuss)", "format": "in vivo"}, "[2]": {"experiment": "Analgesic activity (test by Randall and Salitto)", "format": "in vivo", "method": "Int. Pharmacodyn 151, 409 (1957). Doses of 200, 300 and 500 mg/Kg. cause 1.43: 1.77 and 2.09 effects over controls."}, "[3]": {"experiment": "Antithermic (antipyretic) activity: yeast extract-induced temperature rise in rabbits", "format": "in vivo, rabbit", "method": "Antithermic activity was determined in rabbits, adjusting an endovenous dose of yeast extract to achieve a + 1.7° C rise over the basal temperature of the animal. Three hours after injecting the pyrogenic agent, 200 mg/Kg of the product were administered interperitoneally."}, "rat [4]": {"test_system": "rat", "conditions": "in vivo, po"}, "stomach or intestine [5]": {"test_system": "stomach or intestine", "conditions": "rat, in vivo, 500 mg/kg"}, "rat [6]": {"test_system": "rat", "experiment": "Toxicity test by oral administration in a rat (LD50, LD10)"}, "[7]": {"experiment": "Toxicity test by oral administration in a rat (LD50, LD10)", "conditions": "rat, in vivo, po"}, "stomach or intestine [8]": {"test_system": "stomach or intestine", "experiment": "Gastrointestinal toxicity: ulcers and hemorrhagic content after one dose of 500 mg/Kg in rats", "conditions": "one dose of 500 mg/Kg, 10-rat groups"}, "[9]": {"conditions": "comparison with aspirin, in words"}}, "note": "Where two headings read alike, the source gives them in different places.", "data": [{"smiles": "CC(=O)Nc1ccc(OCCOC(=O)c2ccccc2OC(C)=O)cc1", "note": "[Compound (I), o-acetoxy benzoate ester of 2(p-acetamido-phenyloxy)-ethyl alcohol]", "values": [{"measurement": "selectivity ratio", "setting": "[1]", "value": 10}, {"measurement": "anti-inflammatory activity relative to aspirin", "setting": "edema; [9]", "value": "as active as aspirin"}, {"measurement": "anti-inflammatory activity: times less active than indometacine", "setting": "edema; comparison with indometacine", "value": 33, "unit": "times"}, {"measurement": "inhibition at 200 mg/kg", "setting": "edema; dose 200 mg/Kg", "value": 23, "unit": "%"}, {"measurement": "inhibition at 400 mg/kg", "setting": "edema; dose 400 mg/Kg", "value": 31, "unit": "%"}, {"measurement": "analgesic activity relative to aspirin", "setting": "[2]; [9]", "value": "equipotential with respect to aspirin"}, {"measurement": "analgesic effect over controls", "setting": "[2]; dose 200 mg/Kg", "value": 1.43}, {"measurement": "analgesic effect over controls", "setting": "[2]; dose 300 mg/Kg", "value": 1.77}, {"measurement": "analgesic effect over controls", "setting": "[2]; dose 500 mg/Kg", "value": 2.09}, {"measurement": "animal's temperature after administration, for two consecutive hours", "setting": "[3]; 200 mg/Kg interperitoneally, three hours after pyrogenic agent (+1.7° C rise)", "value": "decreased to its basal values"}, {"measurement": "duration of antipyretic effect relative to aspirin and N-acetyl-p-aminophenol", "setting": "[3]; in words", "value": "longer lasting effects"}, {"measurement": "LD10 (maximum dose possible to administer)", "setting": "rat [4]", "value": "7,000 mg/Kg"}, {"measurement": "gastrointestinal disorders, comparison with aspirin", "setting": "stomach or intestine [5]", "value": "clear differences appear in favor of compound (I) over aspirin"}, {"measurement": "ulcers of the stomach or intestine", "setting": "stomach or intestine [5]", "value": "no ulcers"}, {"measurement": "toxicity factor relative to aspirin", "setting": "rat [6]; factor in favor of product (I) over aspirin", "value": 7}, {"measurement": "toxicity relative to aspirin", "setting": "rat [6]; oral, rat, in words", "value": "less toxic than aspirin"}]}, {"smiles": "CC(=O)Oc1ccccc1C(=O)O", "note": "[aspirin]", "values": [{"measurement": "LD50", "setting": "[7]", "value": 978, "unit": "mg/kg"}, {"measurement": "rats whose stomachs revealed hemorrhagic content", "setting": "stomach or intestine [8]", "value": 60, "unit": "%"}, {"measurement": "ulcers of the stomach or intestine", "setting": "stomach or intestine [8]", "value": "no ulcers"}]}, {"smiles": "COc1ccc2c(c1)c(CC(=O)O)c(C)n2C(=O)c1ccc(Cl)cc1", "note": "[indometacine, reference compound]", "values": [{"measurement": "anti-inflammatory ED50 relative to toxic range", "setting": "edema; in words", "value": "very close to the toxic range"}]}]}
